Assay results published in patent US11045435B2, “Methods for treating ocular diseases” (NATUREWISE BIOTECH & MEDICALS CORPORATION, priority 2016, dated 2021).

Assays:
[1] = tested on: experimentally-induced ocular inflammation; assay: Vascular permeability in experimentally-induced ocular inflammation; assay type: in vivo; conditions: earlier experiments of the applicant's laboratory
[2] = tested on: IL-1-induced uveitis; assay: IL-1-induced uveitis in rat eyes; assay type: in vivo; conditions: earlier experiments of the applicant's laboratory

SMILES: COc1ccc2ccc(=O)oc2c1CC=C(C)C [Osthole]
- vascular permeability [1]: showed efficacy to reduce vascular permeability
- IL-1-induced uveitis [2]: inhibit IL-1-induced uveitis
